{
  "source": "patent US8815934B2",
  "about": "“2-Phenyl-1-[4-(2-Aminoethoxy)-Benzyl]-Indole and estrogen formulations” (Wyeth LLC, priority 1998, dated 2014)",
  "test_system": "Female Sprague Dawley CD rats, ovx",
  "assay": "6-week ovariectomized rat model",
  "type": "in vivo",
  "conditions": "2 μg/rat s.c. daily, mean ± SEM",
  "source_text": "Female Sprague Dawley CD rats, ovx or sham ovx, were obtained 1 day after surgery from Taconic Farm (weight range 240-275 g). They were housed 3 or 4 rats/cage in a room on a 14/10 (light/dark) schedule and provided with food (Purina 500 rat chow) and water ad libitum. Treatment for all studies began 1 day after the animals arrival and dosed 5 or 7 days per week as indicated for 6 weeks. A group of age matched sham operated rats not receiving any treatment served as an intact, estrogen replete control group for each study. All treatments were prepared in 1% […] in normal saline at defined concentrations so that the treatment volume was 0.1 mL/100 g body weight. 17-beta estradiol was dissolved in corn oil (20 uG/mL) and delivered subcutaneously; 0.1 mL/rat. All dosages were adjusted at three week intervals according to group mean body weight measurements.\nFive weeks after the initiation of treatment and one week prior to the termination of the study, each rat was evaluated for bone mineral density (BMD). The BMD's of the proximal tibiae (PT) and fourth lumbar vertabrae (L4) were measured in anesthetized, rats using a dual energy X-ray absorptiometer (Eclipse XR-26, Norland Corp. Ft. Atkins, Wis.). […] Total choleserol is determined using a Boehringer-Mannheim Hitachi 911 clinical analyzer using the Cholesterol/HP kit. […]",
  "data": [
    {"smiles": "C[C@]12CC[C@@H]3c4ccc(O)cc4CC[C@H]3[C@@H]1CC[C@@H]2O", "note": "[17β-estradiol]", "values": [
      {"measurement": "BMD L4", "setting": "following 5 weeks of treatment", "result": "0.169 ± 0.004", "unit": "mg/cm^2"},
      {"measurement": "Cholesterol", "setting": "following 6 weeks of treatment", "result": "95.5 ± 3.9", "unit": "mg/dL"}
    ]}
  ]
}
